Results from patent US9249125B2, “Pyrazole derivatives as p38 MAP inhibitors” (RESPIVERT LIMITED, priority 2012, dated 2016).

What was measured:
Syk = Syk (Homo sapiens (Human), UniProt P43405); experiment: Syk enzyme inhibition (FRET, Z-LYTE); format: biochemical
In short: (§1)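 Z-LYTE FRET kinase assay: enzyme (3000 or 2000 ng/mL stock, respectively) preincubated 2 h at RT with compound (4–0.004 μg/mL stocks), then FRET peptide plus ATP (800 μM stock for c-Src, 60 μM for Syk) added for 1 h. Protease development 1 h; phosphorylation from coumarin/fluorescein emission ratio.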

d-U937 cells = experiment: Cell viability: MTT assay; format: cell-based, human; conditions: 1 μg/mL
In short: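 Differentiated U937 cells were exposed to compound at 1 or 10 μg/mL either 4 h in 5% FCS RPMI1640 or 24 h in 10% FCS RPMI1640, then given MTT for 1 h, DMSO-solubilised and read at 550 nm. Percent viability loss versus 0.5% DMSO vehicle; apparent gains appear negative.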

p38 MAPKα = p38 MAPKα (Homo sapiens (Human), UniProt Q16539); experiment: p38 MAPKα enzyme inhibition (FRET, Z-LYTE); format: biochemical
p38 MAPKα, sequence (Q16539 whole entry): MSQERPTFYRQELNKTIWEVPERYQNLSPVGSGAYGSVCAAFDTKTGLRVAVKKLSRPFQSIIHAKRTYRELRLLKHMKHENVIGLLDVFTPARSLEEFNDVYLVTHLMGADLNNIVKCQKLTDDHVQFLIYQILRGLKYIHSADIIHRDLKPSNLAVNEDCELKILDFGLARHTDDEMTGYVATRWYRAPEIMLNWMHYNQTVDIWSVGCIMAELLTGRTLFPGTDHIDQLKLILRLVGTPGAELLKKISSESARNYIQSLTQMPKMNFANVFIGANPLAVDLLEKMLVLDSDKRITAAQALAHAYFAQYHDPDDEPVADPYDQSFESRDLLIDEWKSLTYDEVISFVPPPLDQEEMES

[1] = tested on: LPS-induced TNFα release in d-U937 cells; experiment: LPS-induced TNFα release in d-U937 cells; format: cell-based; conditions: Homo sapiens, dU937, relative to 10 μg/mL BIRB796, read-out: LPS Induced Release of Cytokine in d-937 Cells TNFα REC50
In short: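 Sandwich ELISA of culture supernatant gives TNFα and IL-8 levels after a 4 hr challenge with LPS (0.1 μg/mL, E. coli O111:B4). Before stimulation, macrophage-like U937 cells, obtained by 48–72 hr in PMA at 100 ng/mL, sit with compound for 2 hr. Relative EC50 is derived from concentration-response data.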

GSK3α = GSK3α (Homo sapiens (Human), UniProt P49840); experiment: GSK 3α enzyme inhibition (FRET, Z-LYTE); format: biochemical
GSK3α, sequence (P49840 whole entry): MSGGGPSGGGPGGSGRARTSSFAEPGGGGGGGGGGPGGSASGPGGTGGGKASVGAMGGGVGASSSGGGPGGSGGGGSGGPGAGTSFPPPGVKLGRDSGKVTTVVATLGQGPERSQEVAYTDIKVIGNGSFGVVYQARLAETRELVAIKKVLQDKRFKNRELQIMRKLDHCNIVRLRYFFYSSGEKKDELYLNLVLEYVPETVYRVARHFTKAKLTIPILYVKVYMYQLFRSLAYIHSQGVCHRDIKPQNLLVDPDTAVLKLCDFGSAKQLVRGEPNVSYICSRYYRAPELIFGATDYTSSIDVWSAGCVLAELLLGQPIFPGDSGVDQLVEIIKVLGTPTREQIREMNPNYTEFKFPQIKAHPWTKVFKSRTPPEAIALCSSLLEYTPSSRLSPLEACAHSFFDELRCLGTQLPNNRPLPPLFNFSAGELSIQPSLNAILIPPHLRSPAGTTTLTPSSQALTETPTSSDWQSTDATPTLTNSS
In short: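 GSK3α (500 ng/mL stock) was preincubated 2 hr at RT with compound (4 to 0.004 μg/mL stocks), then FRET peptide (8 μM stock) and ATP (40 μM stock) added for 1 hr. Protease development for 1 hr cleaved unphosphorylated peptide; coumarin/fluorescein emission ratio reported phosphorylation.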

[2] = tested on: LPS-induced IL-8 release in d-U937 cells; experiment: LPS-induced IL-8 release in d-U937 cells; format: cell-based; conditions: Homo sapiens, dU937, read-out: LPS Induced Release of Cytokine in d-937 Cells IL-8 IC50
In short: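 PMA-differentiated (100 ng/mL, 48–72 hr) U937 cells pre-incubated with compound 2 hr, then stimulated with LPS (0.1 μg/mL, E. coli O111:B4) for 4 hr. Supernatant TNFα and IL-8 measured by sandwich ELISA; inhibition versus vehicle control, REC50 from concentration-response curve.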

[3] = tested on: Poly I:C-induced ICAM-1 expression in BEAS2B cells; experiment: Poly I:C-induced ICAM-1 expression in BEAS2B cells; format: cell-based; conditions: Homo sapiens, BEAS-2B, read-out: Poly IC induced ICAM1 in BEAS2B IC50
In short: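 BEAS2B human bronchial epithelial cells pre-incubated with compound for 2 hr, then transfected with 1 μg/mL poly I:C plus Oligofectamine. At 18 hr, surface ICAM-1 measured by cell-based ELISA (HRP, OD450–655). Signal corrected for cell number by crystal violet OD595.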

cSrc = cSrc (Homo sapiens (Human), UniProt P12931); experiment: c-Src enzyme inhibition (FRET, Z-LYTE); format: biochemical
cSrc, sequence (P12931 whole entry, looked up): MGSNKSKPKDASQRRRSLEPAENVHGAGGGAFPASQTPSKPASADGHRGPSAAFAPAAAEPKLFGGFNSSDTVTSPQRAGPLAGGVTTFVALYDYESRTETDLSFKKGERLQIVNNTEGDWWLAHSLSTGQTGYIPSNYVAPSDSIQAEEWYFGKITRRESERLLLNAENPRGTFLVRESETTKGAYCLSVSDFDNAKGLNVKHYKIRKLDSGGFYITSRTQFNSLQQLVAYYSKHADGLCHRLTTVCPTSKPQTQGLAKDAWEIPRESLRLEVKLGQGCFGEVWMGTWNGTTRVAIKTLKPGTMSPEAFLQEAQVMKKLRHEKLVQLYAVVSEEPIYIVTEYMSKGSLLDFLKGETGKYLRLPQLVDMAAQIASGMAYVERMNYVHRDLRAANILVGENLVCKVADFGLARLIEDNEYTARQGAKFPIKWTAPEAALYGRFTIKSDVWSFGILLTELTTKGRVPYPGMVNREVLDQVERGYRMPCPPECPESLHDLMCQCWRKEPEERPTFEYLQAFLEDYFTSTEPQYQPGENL
In short: as §1

| SMILES | IC50 (Syk) [nM] | MTT Assay Cell viability at time point in d-U937 cells 4 h (d-U937 cells) | MTT Assay Cell viability at time point in d-U937 cells 24 h (d-U937 cells) | IC50 (p38 MAPKα) [nM] | EC50 [1] [nM] | IC50 (GSK3α) [nM] | IC50 [2] [nM] | IC50 [3] [nM] | IC50 (cSrc) [nM] |
| --- | --- | --- | --- | --- | --- | --- | --- | --- | --- |
| CC(C)(C)c1cc(NC(=O)Nc2ccc(Oc3ccnc(Nc4ccc5[nH]ccc5c4)n3)c3ccccc23)n(-c2cccc(CN3CCCC3=O)c2)n1 [Example 48, 1-(4-((2-((1H-indol-5-yl)amino)pyrimidin-4-yl)oxy)naphthalen-1-yl)-3-(3-(tert-butyl)-1-(3-((2-oxopyrrolidin-1-yl)methyl)phenyl)-1H-pyrazol-5-yl)urea] | 18 | −ve (−ve and +ve indicate that the value is below and above respectively, the no significant effect threshold, defined as 30% inhibition at 1 μg/mL at the time point indicated.) | −ve (−ve and +ve indicate that the value is below and above respectively, the no significant effect threshold, defined as 30% inhibition at 1 μg/mL at the time point indicated.) | 70 | 5.3 | > 1420 | 16.6 | 6.9 | 4 |
| CC(C)(C)c1cc(NC(=O)Nc2ccc(Oc3ccnc(Nc4ccc5[nH]ncc5c4)n3)c3ccccc23)n(-c2cccc(CN3CCCC3=O)c2)n1 [Example 49, 1-(4-((2-((1H-indazol-5-yl)amino)pyrimidin-4-yl)oxy)naphthalen-1-yl)-3-(3-(tert-butyl)-1-(3-((2-oxopyrrolidin-1-yl)methyl)phenyl)-1H-pyrazol-5-yl)urea] | 12 | −ve (−ve and +ve indicate that the value is below and above respectively, the no significant effect threshold, defined as 30% inhibition at 1 μg/mL at the time point indicated.) | −ve (−ve and +ve indicate that the value is below and above respectively, the no significant effect threshold, defined as 30% inhibition at 1 μg/mL at the time point indicated.) | 29 | 2.5 | 1350 | 9.7 | 2.2 | 5 |
| CC(C)(C)c1cc(NC(=O)Nc2ccc(Oc3ccnc(Nc4ccc5c(c4)NC(=O)C5)n3)c3ccccc23)n(-c2cccc(OCCN3CCOCC3)c2)n1 [Example 50, 1-(3-(tert-butyl)-1-(3-(2-morpholinoethoxy)phenyl)-1H-pyrazol-5-yl)-3-(4-((2-((2-oxoindolin-6-yl)amino)pyrimidin-4-yl)oxy)naphthalen-1-yl)urea] | 2 | −ve (−ve and +ve indicate that the value is below and above respectively, the no significant effect threshold, defined as 30% inhibition at 1 μg/mL at the time point indicated.) | −ve (−ve and +ve indicate that the value is below and above respectively, the no significant effect threshold, defined as 30% inhibition at 1 μg/mL at the time point indicated.) | 31 | 16.4 | 1170 | 34 | 2.7 | < 1 |
| CC(C)c1cc(NC(=O)Nc2ccc(Oc3ccnc(Nc4ccc5[nH]ncc5c4)n3)c3ccccc23)n(-c2cccc(OCCN3CCOCC3)c2)n1 [Example 53, 1-(4-((2-((1H-indazol-5-yl)amino)pyrimidin-4-yl)oxy)naphthalen-1-yl)-3-(3-isopropyl-1-(3-(2-morpholinoethoxy)phenyl)-1H-pyrazol-5-yl)urea] | 3 | −ve (−ve and +ve indicate that the value is below and above respectively, the no significant effect threshold, defined as 30% inhibition at 1 μg/mL at the time point indicated.) | −ve (−ve and +ve indicate that the value is below and above respectively, the no significant effect threshold, defined as 30% inhibition at 1 μg/mL at the time point indicated.) | 8 | 49.1 | 11300 | 173 | 38.5 | 4 |
| Cc1cc(Nc2nccc(Oc3ccc(NC(=O)Nc4cc(C(C)C)nn4-c4cccc(OCCN5CCOCC5)c4)c4ccccc34)n2)cc2cn[nH]c12 [Example 55, 1-(3-isopropyl-1-(3-(2-morpholinoethoxy)phenyl)-1H-pyrazol-5-yl)-3-(4-((2-((7-methyl-1H-indazol-5-yl)amino)pyrimidin-4-yl)oxy)naphthalen-1-yl)urea] | < 1 | −ve (−ve and +ve indicate that the value is below and above respectively, the no significant effect threshold, defined as 30% inhibition at 1 μg/mL at the time point indicated.) | −ve (−ve and +ve indicate that the value is below and above respectively, the no significant effect threshold, defined as 30% inhibition at 1 μg/mL at the time point indicated.) | 7 | 3.9 | > 13500 | 43.4 | 50.8 | < 1 |
| COCCOc1cccc(-n2nc(C(C)(C)C)cc2NC(=O)Nc2ccc(Oc3ccnc(Nc4cc(C)c5[nH]ncc5c4)c3)c3ccccc23)c1 [Example 57] | 15 | −ve (−ve and +ve indicate that the value is below and above respectively, the no significant effect threshold, defined as 30% inhibition at 1 μg/mL at the time point indicated.) | −ve (−ve and +ve indicate that the value is below and above respectively, the no significant effect threshold, defined as 30% inhibition at 1 μg/mL at the time point indicated.) | 74 | 1.1 | 4700 | 2.3 | 4.4 | 19 |
| CC(C)(C)c1cc(NC(=O)Nc2ccc(Oc3ccnc(Nc4ccc5c(c4)CCC5)n3)c3ccccc23)n(-c2ccc(OCCN3CCOCC3)cc2)n1 [Example 59, 1-(3-(tert-butyl)-1-(4-(2-morpholinoethoxy)phenyl)-1H-pyrazol-5-yl)-3-(4-((2-((2,3-dihydro-1H-inden-5-yl)amino)pyrimidin-4-yl)oxy)naphthalen-1-yl)urea] | 28 | −ve (−ve and +ve indicate that the value is below and above respectively, the no significant effect threshold, defined as 30% inhibition at 1 μg/mL at the time point indicated.) | −ve (−ve and +ve indicate that the value is below and above respectively, the no significant effect threshold, defined as 30% inhibition at 1 μg/mL at the time point indicated.) | 98 | 12.6 | > 9230 | 16.8 | 0.1 | 23 |
| CC(C)(C)c1cc(NC(=O)Nc2ccc(Oc3ccnc(Nc4ccc5c(c4)COC5)n3)c3ccccc23)n(-c2ccc(OCCN3CCOCC3)cc2)n1 [Example 60, 1-(3-(tert-butyl)-1-(4-(2-morpholinoethoxy)phenyl)-1H-pyrazol-5-yl)-3-(4-((2-((1,3-dihydroisobenzofuran-5-yl)amino)pyrimidin-4-yl)oxy)naphthalen-1-yl)urea] | 13 | −ve (−ve and +ve indicate that the value is below and above respectively, the no significant effect threshold, defined as 30% inhibition at 1 μg/mL at the time point indicated.) | −ve (−ve and +ve indicate that the value is below and above respectively, the no significant effect threshold, defined as 30% inhibition at 1 μg/mL at the time point indicated.) | 94 | 1.8 | 686 | 10.3 | 1.4 | 2 |
| CC(C)c1cc(NC(=O)Nc2ccc(Oc3ccnc(Nc4ccc5c(c4)NC(=O)C5)n3)c3ccccc23)n(-c2ccc(OCCN3CCOCC3)cc2)n1 [Example 61, 1-(3-isopropyl-1-(4-(2-morpholinoethoxy)phenyl)-1H-pyrazol-5-yl)-3-(4-((2-((2-oxoindolin-6-yl)amino)pyrimidin-4-yl)oxy)naphthalen-1-yl)urea] | 7 | −ve (−ve and +ve indicate that the value is below and above respectively, the no significant effect threshold, defined as 30% inhibition at 1 μg/mL at the time point indicated.) | −ve (−ve and +ve indicate that the value is below and above respectively, the no significant effect threshold, defined as 30% inhibition at 1 μg/mL at the time point indicated.) | 14 | 18.7 | 1540 | 84.7 | > 135 | < 1 |
